Converted amounts (≈) assume the structure as drawn. The source made the active and inactive calls. The rule behind the calls is not given here.
How the values were obtained:
Bacillus subtilis [1] = test: Antibacterial activity against Bacillus subtilis 168 after 16 hrs; format: functional; conditions: subsp. subtilis str. 168, 16 h
[2] = target: T1, Cell division protein FtsZ (Bacillus subtilis (strain 168)) (UniProt P17865); test: Inhibition of Bacillus subtilis FtsZ GTPase activity up to 64 uM by enzyme-coupled assay
T1 sequence (whole entry): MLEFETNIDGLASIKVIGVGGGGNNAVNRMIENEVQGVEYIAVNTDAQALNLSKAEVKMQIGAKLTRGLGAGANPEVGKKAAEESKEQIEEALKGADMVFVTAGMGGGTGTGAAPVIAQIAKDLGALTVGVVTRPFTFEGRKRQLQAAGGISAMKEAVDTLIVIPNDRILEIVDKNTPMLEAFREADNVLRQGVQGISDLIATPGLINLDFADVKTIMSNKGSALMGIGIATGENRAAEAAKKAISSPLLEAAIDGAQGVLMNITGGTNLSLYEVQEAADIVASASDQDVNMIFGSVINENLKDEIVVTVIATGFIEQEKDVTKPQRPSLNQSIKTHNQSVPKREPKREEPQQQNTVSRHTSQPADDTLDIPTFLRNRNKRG

Bacillus subtilis [3] = test: Ratio of totarol MIC to compound MIC for Bacillus subtilis 168; format: functional, subsp. subtilis str. 168
[4] = target: T2, Cell division protein FtsZ (Bacillus subtilis (strain 168), UniProt P17865); test: Inhibition of Bacillus subtilis FtsZ GTPase activity by enzyme-coupled assay
T2 sequence (P17865 whole entry): T1 sequence (whole entry)

[5] = target: T1, Cell division protein FtsZ (Bacillus subtilis (strain 168)); test: Inhibition of Bacillus subtilis FtsZ GTPase activity by enzyme-coupled assay in presence of 0.01% triton X-100

## COc1ccc2c(c1C(C)C)CC[C@H]1C(C)(C)C(=O)/C(=C\O)C[C@]21C
Bacillus subtilis [1]
  MIC: > 160 µM

## CC(C)c1c(O)ccc2c1CC[C@H]1C(C)(C)c3[nH]ncc3C[C@]21C
Bacillus subtilis [1]
  MIC: > 160 µM

## CC(C)c1c(O)ccc2c1CC[C@H]1C(C)(C)c3c(cnn3-c3ccccc3)C[C@]21C
Bacillus subtilis [1]
  MIC: > 160 µM

## CC(C)c1c(O)ccc2c1CC[C@H]1C(C)(C)c3oncc3C[C@]21C
Bacillus subtilis [1]
  MIC: 40 µM (≈ 13 µg/mL)

## CC(C)c1c(O)ccc2c1CC[C@H]1C(C)(C)c3[nH]c4ccccc4c3C[C@]21C
Bacillus subtilis [1]
  MIC: 2.5 µM (≈ 0.934 µg/mL)
[2]
  inhibition: inactive
Bacillus subtilis [3]
  Ratio: 4

## CC(C)c1c(O)ccc2c1CC[C@H]1C(C)(C)/C(=N/O)CC[C@]21C
Bacillus subtilis [1]
  MIC: > 160 µM

## CC(C)c1c(O)ccc2c1CC[C@H]1C(C)(C)NC(=O)CC[C@]21C
Bacillus subtilis [1]
  MIC: > 160 µM

## CC(C)c1c(O)ccc2c1CC[C@H]1C(C)(C)C(N)CC[C@]21C (some centres not stated)
Bacillus subtilis [1]
  MIC: > 160 µM

## CC(C)c1c(O)ccc2c1NC[C@H]1C(C)(C)CCC[C@]21C
Bacillus subtilis [1]
  MIC: 20 µM (≈ 5.75 µg/mL)

## CC(=O)N1C[C@H]2C(C)(C)CCC[C@]2(C)c2ccc(O)c(C(C)C)c21
Bacillus subtilis [1]
  MIC: > 256 µM

## COc1ccc2c(c1C(C)C)CC[C@H]1C(C)(C)c3[nH]c4ccc(C#N)cc4c3C[C@]21C (racemic)
Bacillus subtilis [1]
  MIC: > 100 µM

## CC(C)c1c(O)ccc2c1CC[C@H]1C(C)(C)c3[nH]c4c(Cl)cc(Cl)cc4c3C[C@]21C (racemic)
Bacillus subtilis [1]
  MIC: 0.78 µM (≈ 0.345 µg/mL)

## CC(C)c1c(O)ccc2c1CC[C@H]1C(C)(C)c3[nH]c4ccc(C(F)(F)F)cc4c3C[C@]21C (racemic)
Bacillus subtilis [1]
  MIC: 0.78 µM (≈ 0.344 µg/mL)

## CC(C)c1c(O)ccc2c1CC[C@H]1C(C)(C)c3[nH]c4ccc(C#N)cc4c3C[C@]21C (racemic)
Bacillus subtilis [1]
  MIC: 0.78 µM (≈ 0.311 µg/mL)
[2]
  inhibition: inactive

## CC(C)c1c(O)ccc2c1CC[C@H]1C(C)(C)c3[nH]c4ccc(F)cc4c3C[C@]21C (racemic)
Bacillus subtilis [1]
  MIC: 80 µM (≈ 31.3 µg/mL)

## CCc1ccc2[nH]c3c(c2c1)C[C@]1(C)c2ccc(O)c(C(C)C)c2CC[C@H]1C3(C)C (racemic)
Bacillus subtilis [1]
  MIC: 2.5 µM (≈ 1 µg/mL)

## CC(C)c1c(O)ccc2c1CC[C@H]1C(C)(C)c3[nH]c4ccc(S(N)(=O)=O)cc4c3C[C@]21C (racemic)
Bacillus subtilis [1]
  MIC: 5.5 µM (≈ 2.49 µg/mL)

## Cc1ccc2c3c([nH]c2c1C)C(C)(C)[C@@H]1CCc2c(ccc(O)c2C(C)C)[C@@]1(C)C3 (racemic)
Bacillus subtilis [1]
  MIC: 11 µM (≈ 4.42 µg/mL)

## CCc1cccc2c3c([nH]c12)C(C)(C)[C@@H]1CCc2c(ccc(O)c2C(C)C)[C@@]1(C)C3 (racemic)
Bacillus subtilis [1]
  MIC: 1 µM (≈ 0.402 µg/mL)

## CC(C)c1c(O)ccc2c1CC[C@H]1C(C)(C)c3[nH]c4c(O)cccc4c3C[C@]21C (racemic)
Bacillus subtilis [1]
  MIC: 6.3 µM (≈ 2.45 µg/mL)

## CC(C)c1c(O)ccc2c1CC[C@H]1C(C)(C)CCC[C@]21C [TOTAROL]
Bacillus subtilis [1]
  MIC: 2.5 µM (≈ 0.716 µg/mL)
[4]
  IC50: 24 µM
[5]
  inhibition: inactive

## CN[C@H](CC(C)C)C(=O)N[C@H]1C(=O)N[C@@H](CC(N)=O)C(=O)N[C@H]2C(=O)N[C@H]3C(=O)N[C@H](C(=O)N[C@H](C(=O)O)c4cc(O)cc(O)c4-c4cc3ccc4O)[C@H](O)c3ccc(c(Cl)c3)Oc3cc2cc(c3O[C@@H]2O[C@H](CO)[C@@H](O)[C@H](O)[C@H]2O[C@H]2C[C@](C)(N)[C@H](O)[C@H](C)O2)Oc2ccc(cc2Cl)[C@H]1O [VANCOMYCIN]
Bacillus subtilis [1]
  MIC: 0.63 µM (≈ 0.913 µg/mL)

From ChEMBL document CHEMBL2150925, “The Synthesis and Antimicrobial Activity of Heterocyclic Derivatives of Totarol” (ACS Med Chem Lett, 2012)
